Assay results from patent US8759301B2, “Gene fusion targeted therapy” (The Regents of The University of Michigan, priority 2010, dated 2014).
Entries after “also recorded” stand apart in the source; their conditions may differ. Where two headings read alike, the source gives them in different places.

Key:
AR [1] = molecular target: AR (Homo sapiens, UniProt P10275, T878A); details: for number of AR binding sites: LNCaP R1881-treated
AR [2] = molecular target: AR (Homo sapiens, UniProt P10275); details: VCaP, R1881 treated (10 nM, 16 hr, hormone deprived)
Method: For ERG ChIP, LNCaP, VCaP, RWPE+ERG, and RWPE+GUS cells grown in corresponding regular medium were used.
ChIP samples were prepared for sequencing using the Genomic DNA sample prep kit (Illumina) following manufacturers protocols. ChIP-Sequencing was performed using Illumina Genome Analyzer according to standard manufacturer's procedures. The raw sequencing image data were analyzed by the Illumina analysis pipeline, aligned to the unmasked human reference genome (NCBI v36, hg18) using the ELAND software (Illumina) to generate sequence reads of 25-32 bps.
It was first counted how many uniquely mapped reads are there in each sample and the ratio of the two counts was used as the normalizing factor to bring the total number of useable reads to the same level in both samples. Next each uniquely mapped read was extended directionally to form a 200 bp hypothetical DNA fragment (HDF) in each sample. 200 is assumed to be the average length of size-selected DNA pieces during sample preparation (175-225 bp).
Under the null hypothesis of no enrichment in the stimulated sample versus unstimulated samples, reads from both samples are assumed to land on the genome following the same Poisson distribution (after corrected for the read counts in the unstimulated sample). […] The probability of observing the read difference between two samples in each coverage region was calculated numerically. […]

AR protein = experiment: Immunoblot of AR protein in VCaP cells; type: cell-based
Source text: VCaP cells grown in DMEMglutamax (Invitrogen, Carlsbad, Calif.) supplemented with 10% FBS to 80% confluence. Cells were harvested with or without formaldehyde crosslinking, and nuclei were isolated subsequently. After washing with TBS twice, nuclei were lysed and sonicated in RIPA buffer containing protease inhibitors (Roche applied science, Indianapolis, Ind.). […] Mouse monoclonal anti-AR antibody (AR441) from Labvision (Thermo scientific, Fremont, Calif.) was used for Western experiment.

AR mRNA = experiment: Quantitative PCR of AR transcript in VCaP cells; type: cell-based
Method: All PCR experiments were performed in triplicates.

AR (Homo sapiens, UniProt P10275, T878A), sequence (P10275 whole entry T878A): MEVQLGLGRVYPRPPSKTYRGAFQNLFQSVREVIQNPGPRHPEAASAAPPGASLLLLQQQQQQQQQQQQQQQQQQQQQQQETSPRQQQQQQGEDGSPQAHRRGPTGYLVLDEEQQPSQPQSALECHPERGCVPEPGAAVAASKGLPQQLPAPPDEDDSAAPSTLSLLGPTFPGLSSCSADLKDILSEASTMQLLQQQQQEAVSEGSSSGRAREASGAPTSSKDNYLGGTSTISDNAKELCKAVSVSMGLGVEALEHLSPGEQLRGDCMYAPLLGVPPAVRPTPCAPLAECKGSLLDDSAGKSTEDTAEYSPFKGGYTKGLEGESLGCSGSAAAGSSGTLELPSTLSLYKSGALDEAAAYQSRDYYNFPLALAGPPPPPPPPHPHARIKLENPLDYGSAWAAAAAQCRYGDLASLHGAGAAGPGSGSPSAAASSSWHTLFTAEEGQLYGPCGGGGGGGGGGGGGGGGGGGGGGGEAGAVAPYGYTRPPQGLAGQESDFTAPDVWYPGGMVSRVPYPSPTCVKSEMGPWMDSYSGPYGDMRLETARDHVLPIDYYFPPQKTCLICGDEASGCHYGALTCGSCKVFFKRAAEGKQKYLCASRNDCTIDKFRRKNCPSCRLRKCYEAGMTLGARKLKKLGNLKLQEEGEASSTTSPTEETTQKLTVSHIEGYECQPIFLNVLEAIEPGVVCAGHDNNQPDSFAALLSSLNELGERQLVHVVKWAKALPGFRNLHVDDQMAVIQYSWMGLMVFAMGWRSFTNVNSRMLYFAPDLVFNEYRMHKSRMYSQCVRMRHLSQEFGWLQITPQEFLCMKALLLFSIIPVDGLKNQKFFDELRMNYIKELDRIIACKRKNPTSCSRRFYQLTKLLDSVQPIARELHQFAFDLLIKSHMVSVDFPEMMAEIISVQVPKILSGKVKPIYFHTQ
AR (Homo sapiens, UniProt P10275), sequence (P10275 whole entry): as the sequence (P10275 whole entry T878A) above, with A878T counted along it

C[C@]1(O)CC[C@H]2[C@@H]3CCC4=CC(=O)CCC4=C3C=C[C@@]21C [R1881, methyltrienolone]
number of AR binding sites (AR [1]; distance to TSS 7 kb): 145 | number of AR binding sites (AR [1]; distance to TSS 8 kb): 148 | number of AR binding sites (AR [1]; distance to TSS 9 kb): 139 | number of AR binding sites (AR [1]; distance to TSS 10 kb): 117 | number of AR binding sites (AR [1]; distance to TSS 11 kb): 120 | number of AR binding sites (AR [1]; distance to TSS 12 kb): 123 | number of AR binding sites (AR [1]; distance to TSS 13 kb): 134 | number of AR binding sites (AR [1]; distance to TSS 14 kb): 126 | number of AR binding sites (AR [1]; distance to TSS 15 kb): 137 | number of AR binding sites (AR [1]; distance to TSS 16 kb): 114 | number of AR binding sites (AR [1]; distance to TSS 17 kb): 109 | number of AR binding sites (AR [1]; distance to TSS 18 kb): 107 | number of AR binding sites (AR [1]; distance to TSS 19 kb): 109 | number of AR binding sites (AR [1]; distance to TSS 20 kb): 97 | number of AR binding sites (AR [1]; distance to TSS 21 kb): 97 | number of AR binding sites (AR [1]; distance to TSS 22 kb): 98 | number of AR binding sites (AR [1]; distance to TSS 23 kb): 100 | number of AR binding sites (AR [1]; distance to TSS 24 kb): 99 | number of AR binding sites (AR [1]; distance to TSS 25 kb): 105 | number of AR binding sites (AR [1]; distance to TSS 26 kb): 105 | number of AR binding sites (AR [1]; distance to TSS 27 kb): 86 | number of AR binding sites (AR [1]; distance to TSS 28 kb): 90 | number of AR binding sites (AR [1]; distance to TSS 29 kb): 76 | number of AR binding sites (AR [1]; distance to TSS 30 kb): 78 | number of AR binding sites (AR [1]; distance to TSS 31 kb): 101 | number of AR binding sites (AR [1]; distance to TSS 32 kb): 86 | number of AR binding sites (AR [1]; distance to TSS 33 kb): 94 | number of AR binding sites (AR [1]; distance to TSS 34 kb): 79 | number of AR binding sites (AR [1]; distance to TSS 35 kb): 68 | number of AR binding sites (AR [1]; distance to TSS 36 kb): 79 | number of AR binding sites (AR [1]; distance to TSS 37 kb): 88 | number of AR binding sites (AR [1]; distance to TSS 38 kb): 72 | number of AR binding sites (AR [1]; distance to TSS 39 kb): 57 | number of AR binding sites (AR [1]; distance to TSS 40 kb): 65 | number of AR binding sites (AR [1]; distance to TSS 41 kb): 76 | number of AR binding sites (AR [1]; distance to TSS 42 kb): 65 | number of AR binding sites (AR [1]; distance to TSS 43 kb): 73 | number of AR binding sites (AR [1]; distance to TSS 44 kb): 58 | number of AR binding sites (AR [1]; distance to TSS 45 kb): 69 | number of AR binding sites (AR [1]; distance to TSS 46 kb): 56 | number of AR binding sites (AR [1]; distance to TSS 47 kb): 53 | number of AR binding sites (AR [1]; distance to TSS 48 kb): 55 | number of AR binding sites (AR [1]; distance to TSS 49 kb): 61 | number of AR binding sites (AR [1]; distance to TSS 50 kb): 77 | number of AR binding sites (AR [1]; distance to TSS 51 kb): 50 | number of AR binding sites (AR [1]; distance to TSS 52 kb): 54 | number of AR binding sites (AR [1]; distance to TSS 53 kb): 61 | number of AR binding sites (AR [1]; distance to TSS 54 kb): 56 | number of AR binding sites (AR [1]; distance to TSS 55 kb): 41 | number of AR binding sites (AR [1]; distance to TSS 56 kb): 55 | number of AR binding sites (AR [1]; distance to TSS 57 kb): 59 | number of AR binding sites (AR [1]; distance to TSS 58 kb): 60 | number of AR binding sites (AR [1]; distance to TSS 59 kb): 58 | number of AR binding sites (AR [1]; distance to TSS 60 kb): 43 | number of AR binding sites (AR [1]; distance to TSS 61 kb): 36 | number of AR binding sites (AR [1]; distance to TSS 62 kb): 49 | number of AR binding sites (AR [1]; distance to TSS 63 kb): 40 | number of AR binding sites (AR [1]; distance to TSS 64 kb): 52 | number of AR binding sites (AR [1]; distance to TSS 65 kb): 50 | number of AR binding sites (AR [1]; distance to TSS 66 kb): 39 | number of AR binding sites (AR [1]; distance to TSS 67 kb): 37 | number of AR binding sites (AR [1]; distance to TSS 68 kb): 47 | number of AR binding sites (AR [1]; distance to TSS 69 kb): 47 | number of AR binding sites (AR [1]; distance to TSS 70 kb): 45 | number of AR binding sites (AR [1]; distance to TSS 71 kb): 43 | number of AR binding sites (AR [1]; distance to TSS 72 kb): 43 | number of AR binding sites (AR [1]; distance to TSS 73 kb): 57 | number of AR binding sites (AR [1]; distance to TSS 74 kb): 37 | number of AR binding sites (AR [1]; distance to TSS 75 kb): 34 | number of AR binding sites (AR [1]; distance to TSS 76 kb): 39 | number of AR binding sites (AR [1]; distance to TSS 77 kb): 48 | number of AR binding sites (AR [1]; distance to TSS 78 kb): 31 | number of AR binding sites (AR [1]; distance to TSS 79 kb): 37 | number of AR binding sites (AR [1]; distance to TSS 80 kb): 36 | number of AR binding sites (AR [1]; distance to TSS 81 kb): 35 | number of AR binding sites (AR [1]; distance to TSS 82 kb): 49 | number of AR binding sites (AR [1]; distance to TSS 83 kb): 39 | number of AR binding sites (AR [1]; distance to TSS 84 kb): 32 | number of AR binding sites (AR [1]; distance to TSS 85 kb): 39 | number of AR binding sites (AR [1]; distance to TSS 86 kb): 40 | number of AR binding sites (AR [1]; distance to TSS 87 kb): 31 | number of AR binding sites (AR [1]; distance to TSS 88 kb): 34 | number of AR binding sites (AR [1]; distance to TSS 89 kb): 33 | number of AR binding sites (AR [1]; distance to TSS 90 kb): 33 | number of AR binding sites (AR [1]; distance to TSS 91 kb): 41 | number of AR binding sites (AR [1]; distance to TSS 92 kb): 28 | number of AR binding sites (AR [1]; distance to TSS 93 kb): 36 | number of AR binding sites (AR [1]; distance to TSS 94 kb): 27 | number of AR binding sites (AR [1]; distance to TSS 95 kb): 28 | number of AR binding sites (AR [1]; distance to TSS 96 kb): 35 | number of AR binding sites (AR [1]; distance to TSS 97 kb): 27 | number of AR binding sites (AR [1]; distance to TSS 98 kb): 27 | number of AR binding sites (AR [1]; distance to TSS 99 kb): 34 | number of AR binding sites (AR [1]; distance to TSS 100 kb): 19 | number of AR binding sites (AR [1]; distance to TSS 101 kb): 24 | number of AR binding sites (AR [1]; distance to TSS 102 kb): 23 | number of AR binding sites (AR [1]; distance to TSS 103 kb): 28 | number of AR binding sites (AR [1]; distance to TSS 104 kb): 30 | number of AR binding sites (AR [1]; distance to TSS 105 kb): 20 | number of AR binding sites (AR [1]; distance to TSS 106 kb): 31 | Enriched Peaks, AR ChIP-Seq (AR [1]; LNCaP, R1881 treated (10 nM, 16 hr, hormone deprived)): 44536 | Enriched Peaks, AR ChIP-Seq (AR [2]): 21376 | AR protein expression (AR protein): inhibits | AR mRNA expression (AR mRNA; VCaP cells): inhibits; also recorded: repression | repression of AR transcript (AR mRNA; hormone-deprived VCaP, 24 h after treatment, versus vehicle): over 10 folds
